Usually IC50 stands for the concentration needed to halve the response being measured.

Each structure is given as a SMILES string.

The target in the first experiment is T1, protein-protein interaction between SOS1 and KRAS G12C (Homo sapiens, UniProt P01116, C118S/C51S/C80L/G12C).
T1 construct: His6 (N)
T1 sequence (P01116 1-169 isoform P01116-2 G12C/C51S/C80L/C118S): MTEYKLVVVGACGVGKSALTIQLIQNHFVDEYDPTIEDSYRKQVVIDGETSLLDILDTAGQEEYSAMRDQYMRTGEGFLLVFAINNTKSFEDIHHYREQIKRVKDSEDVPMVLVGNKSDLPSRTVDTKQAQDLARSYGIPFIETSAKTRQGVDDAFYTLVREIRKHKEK
Description: KRAS::SOS1 AlphaScreen binding assay. The settings on record: Table 36. Here is the method:
KRAS::SOS1 AlphaScreen Binding Assay
Assay buffer: • 1×PBS • 0.1% BSA • 0.05% Tween 20
AlphaLISA Glutathione Acceptor Beads and AlphaScreen Streptavidin Donor Beads are mixed in assay buffer at a concentration of 10 μg/mL (final assay concentration) each prior to use and kept at room temperature.
Compounds are diluted to a final start concentration of 100 μM and are tested in duplicate. […] For compound a start concentration of 100 μM, 150 nL of compound solution is transferred per well in 11 concentrations in duplicate with serial 1:5 dilutions.
The assay is run using a fully automated robotic system in a darkened room below 100 Lux. 10 μL of KRAS::SOS1 GDP mix is added into columns 1-24 to the 150 nL of compound solution (final dilution in the assay 1:100, final DMSO concentration 1%).
After 30 minutes incubation time 5 μL of bead mix is added into columns 1-23. Plates are kept at room temperature in a darkened incubator. After further 60 minutes incubation, the signal is measured using a PerkinElmer Envision HTS Multilabel Reader using the AlphaScreen specifications from PerkinElmer. Each plate contains the following controls: • diluted DMSO+KRAS::SOS1 GDP mix+bead mix • diluted DMSO+KRAS::SOS1 GDP mix
IC50 values are calculated and analyzed using a 4 parametric logistic model.
On the technique in general: In Alpha technology, singlet oxygen from a donor bead excites a nearby acceptor bead.
For `C=CC(=O)N1CCN(c2cc(-c3noc(C4(C)CCC(C)c5sc(N)c(C#N)c54)n3)nc(N3CCN(CC)CC3)c2)CC1` (centres unmarked) [Ia-105], the IC50 was determined as 145 nM.

In turn, `C=CC(=O)N1CCN(c2cc(-c3noc(C4(C)CCCc5sc(N)c(C#N)c54)n3)nc(N3CCC(N4CCOCC4)CC3)c2)CC1` (centres unmarked) [Ia-29] registered an IC50 of 48 nM. On the same count and under the same terms, for `C=CC(=O)N1CCN(c2cc(-c3noc(C4(C)CCCc5sc(N)c(C#N)c54)n3)nc(N3CCN4CCC[C@H]4C3)c2)CC1` (some centres unmarked) [Ia-148] the value was 24 nM; for `C=CC(=O)N1CCN(c2cc(-c3noc(C4(C)CCC(C)c5sc(N)c(C#N)c54)n3)nc(N3CCN(C)CC3)c2)CC1C` (centres unmarked) [Ia-104], 635 nM; for `C=CC(=O)N1CCC2C1CCN2c1cc(-c2noc([C@@]3(C)CCCc4sc(N)c(C#N)c43)n2)nc(N2CCCN(C)C[C@@H]2C)n1` (some centres unmarked) [Ia-103], 143 nM.

Regarding `C=CC(=O)N1CCN(c2cc(-c3noc(C4(C)CC(F)(F)Cc5sc(N)c(C#N)c54)n3)nc(N3CCN(C)CC3)c2)CC1` (centres unmarked) [Ia-113], the IC50 turned out to be 730 nM. Same read-out and setting: with `C=CC(=O)N1CCC(Oc2cc(-c3noc(C4(C)CCCc5sc(N)c(C#N)c54)n3)nc(N3CCN(C4CCCC4)CC3)c2)CC1` (centres unmarked) [Ia-111] the figure was 418 nM; with `C=CC(=O)N1CC[C@@H](Oc2cc(-c3noc([C@@]4(C)CCCc5sc(N)c(C#N)c54)n3)nc(N3CCN(C)CC3)c2)C1` [Ia-112], 73 nM; with `C=CC(=O)N1CCN(c2cc(-c3noc([C@@]4(C)CCCc5sc(N)c(C#N)c54)n3)nc(N3CCN(CC)CC3)c2)CC1` [Ia-126], 30 nM.

Compound `C=CC(=O)NCC1CN(c2cc(-c3noc(C4(C)CCCc5sc(N)c(C#N)c54)n3)nc(N3CCN(C)CC3)c2)C1` (centres unmarked) [Ia-109] displayed an IC50 of 943 nM. For `C=CC(=O)N1CC2=C(C1)CN(c1cc(-c3noc([C@@]4(C)CCCc5sc(N)c(C#N)c54)n3)nc(N3CCCN(C)C[C@@H]3C)n1)C2` [Ia-102], the concentration for half-maximal inhibition (IC50) came to 117 nM. `C=CC(=O)N1CCCN(c2cc(-c3noc(C4(C)CCCc5sc(N)c(C#N)c54)n3)nc(N3CCN(C)CC3)c2)CC1` (centres unmarked) [Ia-124] had an IC50 of 158 nM. On the same count and under the same terms, with `C=CC(=O)N1CCN(c2cc(-c3noc(C4(C)CCCc5sc(N)c(C#N)c54)n3)nc(N3CCN(C4CC4)CC3)c2)CC1` (centres unmarked) [Ia-17] the figure was 260 nM.

Turning to `C=CC(=O)N1CCCN(c2cc(-c3noc([C@@]4(C)CCCc5sc(N)c(C#N)c54)n3)nc(N3CCCN(CCCOC)C[C@@H]3C)n2)CC1` [Ia-45], the IC50 was determined as 6 nM. As for `C=CC(=O)N1CCN(c2cc(OCCN(C)C)cc(-c3noc(C4(C)CCCc5sc(N)c(C#N)c54)n3)c2)CC1` (centres unmarked) [Ia-90], the 50% inhibitory concentration (IC50) is 250 nM. On the same count and under the same terms, with `C=CC(=O)N1CCN(c2cc(-c3noc(C4(C)CCCc5sc(N)c(C#N)c54)n3)nc(N3CCN(C4CCCC4)CC3)c2)CC1` (centres unmarked) [Ia-147] the figure was 71 nM; with `C=CC(=O)N1CCN(c2cc(-c3noc(C4(C)CCCc5sc(N)c(C#N)c54)n3)nc(N3CCN(C(C)(C)C)CC3)c2)CC1` (centres unmarked) [Ia-31], 83 nM; with `C=CC(=O)N1CCN(c2cc(OCCN(C)C)nc(-c3noc(C4(C)CCCc5sc(N)c(C#N)c54)n3)c2)CC1` (centres unmarked) [Ia-89], 48 nM.

The experiment is the same for the next values; noted with them: Table 38.
In turn, `CC#CC(=O)N1CCN(c2cc(-c3noc(C4(C)CCCc5sc(N)c(C#N)c54)n3)nc(N3CCN(C)CC3)c2)CC1` (centres unmarked) [Ia-168] registered a half-maximal inhibitory concentration (IC50) of 1020 nM.

The experiment is the same for the next values; noted with them: Table 40.
The compound `C=CC(=O)N1CCN(c2cc(-c3noc(C4(C)CCCc5sc(N)c(C#N)c54)n3)nc(N3CCNCC3)c2)CC1` (centres unmarked) [Ia-170] registered an IC50 of 87 nM.

A further experiment deals with pERK (Thr202/Tyr204) in NCI-H358 (KRAS G12C mutation). Description: ERK phosphorylation assay 1 (AlphaLISA SureFire Ultra p-ERK1/2). The settings on record: Homo sapiens, NCI-H358, read-out: IC50 H358 pERK.
Description: ERK Phosphorylation Assay
Materials Used for the Assay:
AlphaLISA SureFire Ultra p-ERK1/2 (Thr202/Tyr204) Assay Kit (ALSU-PERK-A500)
The cells are incubated for 1 h at room temperature and then incubated overnight in an incubator at 37° C. and 5% CO2 in a humidified atmosphere. 60 nL compound solution (10 mM DMSO stock solution) is then added using a Labcyte Echo 550 device. […] After 20 minutes of incubation at room temperature with shaking, 6 μL of each lysate sample is transferred to a 384-well Proxiplate and analyzed for pERK (Thr202/Tyr204) with the AlphaLISA SureFire Ultra pERK1/2 (Thr202/Tyr204) Assay Kit. 3 μL Acceptor Mix and 3 μL Donor Mix are added under subdued light and incubated for 2 h at room temperature in the dark, before the signal is measured on a PerkinElmer Envision HTS Multilabel Reader. The raw data were imported into and analyzed with the Boehringer Ingelheim proprietary software MegaLab (curve fitting based on the program PRISM, GraphPad Inc.).
Regarding `C=CC(=O)N1CCN(c2cc(-c3noc([C@@]4(C)CCCc5sc(N)c(C#N)c54)n3)nc(N3CCN(C)C[C@H]3C)c2)CC1` [Ia-119], the IC50 stood at 24.2 nM. Still for that read-out and setting: with `C=CC(=O)N1CCN(c2cc(-c3noc([C@@]4(C)CCCc5sc(N)c(C#N)c54)n3)nc(N3CCN(C)C[C@@H]3C)c2)CC1` [Ia-14] the figure was 2.7 nM. `C=CC(=O)N1CCN(c2cc(-c3noc(C4(C)CCC(C)c5sc(N)c(C#N)c54)n3)nc(N3CCN(CC)CC3)c2)CC1` (centres unmarked) [Ia-105]: the concentration for half-maximal inhibition (IC50) was 14.4 nM. Turning to `C=CC(=O)N1CCN(c2cc(-c3noc(C4(C)CCCc5sc(N)c(C#N)c54)n3)nc(N3CCC(N4CCOCC4)CC3)c2)CC1` (centres unmarked) [Ia-29], the IC50 came out at 7.8 nM. Take `C=CC(=O)N1CCN(c2cc(-c3noc(C4(C)CCCc5sc(N)c(C#N)c54)n3)nc(N3CCN4CCC[C@H]4C3)c2)CC1` (some centres unmarked) [Ia-148]: the 50% inhibitory concentration (IC50) worked out at 5.9 nM.

For the compound `C=CC(=O)N1CCN(c2cc(-c3noc(C4(C)CCC(C)c5sc(N)c(C#N)c54)n3)nc(N3CCN(C)CC3)c2)CC1C` (centres unmarked) [Ia-104], the IC50 came to 71.8 nM.

Take `C=CC(=O)N1CCN(c2cc(-c3noc(C4(C)CCCc5sc(N)c(C#N)c54)n3)nc(N3CCNCC3)c2)CC1` (centres unmarked) [Ia-170]: the IC50 amounted to 269 nM. On the same count and under the same terms, for `C=CC(=O)N1CCN(c2cc(-c3noc(C4(C)CC(F)(F)Cc5sc(N)c(C#N)c54)n3)nc(N3CCN(C)CC3)c2)CC1` (centres unmarked) [Ia-113] the value was 376 nM; for `C=CC(=O)N1CCC(Oc2cc(-c3noc(C4(C)CCCc5sc(N)c(C#N)c54)n3)nc(N3CCN(C4CCCC4)CC3)c2)CC1` (centres unmarked) [Ia-111], 92.5 nM.

As to `C=CC(=O)N1CC[C@@H](Oc2cc(-c3noc([C@@]4(C)CCCc5sc(N)c(C#N)c54)n3)nc(N3CCN(C)CC3)c2)C1` [Ia-112], the 50% inhibitory concentration (IC50) worked out at 18.5 nM. Turning to `C=CC(=O)N1CCN(c2cc(-c3noc([C@@]4(C)CCCc5sc(N)c(C#N)c54)n3)nc(N3CCN(CC)CC3)c2)CC1` [Ia-126], the IC50 was found to be 4.2 nM. Still for that read-out and setting: for `C=CC(=O)NCC1CN(c2cc(-c3noc(C4(C)CCCc5sc(N)c(C#N)c54)n3)nc(N3CCN(C)CC3)c2)C1` (centres unmarked) [Ia-109] the value was 5990 nM. On the same count and under the same terms, with `C=CC(=O)N1CCCN(c2cc(-c3noc(C4(C)CCCc5sc(N)c(C#N)c54)n3)nc(N3CCN(C)CC3)c2)CC1` (centres unmarked) [Ia-124] the figure was 76.6 nM; with `C=CC(=O)N1CCN(c2cc(-c3noc(C4(C)CCCc5sc(N)c(C#N)c54)n3)nc(N3CCN(C4CC4)CC3)c2)CC1` (centres unmarked) [Ia-17], 29.4 nM; with `C=CC(=O)N1CCN(c2cc(-c3noc([C@]4(C)CCCc5sc(N)c(C#N)c54)n3)nc(N3CCN(C)C[C@@H]3C)c2)CC1` [Ia-13], 7.3 nM.
